Read-outs that look alike come from different tables or passages of the source. Where a SMILES comes first, the peptide text is derived from it. [ ]: non-standard residue; d: D form. The star is where a group is joined. Hyp = O=C(O)[C@@H]1C[C@@H](O)CN1; pGlu = O=C1CC[C@@H](C(=O)O)N1; Bn = c1ccc(C*)cc1
Columns and labels:
[1] = oral administration; needs intravenous administration; cited from earlier work
[2] = target: T1, angiotensin conversion enzyme (Oryctolagus cuniculus, UniProt P12822); assay: Inhibition of the angiotensin conversion enzyme in vitro (method of Cushman and Cheung); type: biochemical; conditions: enzyme isolated from rabbit lungs, read-out: I50
T1 construct: the enzyme isolated from rabbit lungs; from tissue; host or cells: rabbit lung
T1 sequence (P12822 34-1310): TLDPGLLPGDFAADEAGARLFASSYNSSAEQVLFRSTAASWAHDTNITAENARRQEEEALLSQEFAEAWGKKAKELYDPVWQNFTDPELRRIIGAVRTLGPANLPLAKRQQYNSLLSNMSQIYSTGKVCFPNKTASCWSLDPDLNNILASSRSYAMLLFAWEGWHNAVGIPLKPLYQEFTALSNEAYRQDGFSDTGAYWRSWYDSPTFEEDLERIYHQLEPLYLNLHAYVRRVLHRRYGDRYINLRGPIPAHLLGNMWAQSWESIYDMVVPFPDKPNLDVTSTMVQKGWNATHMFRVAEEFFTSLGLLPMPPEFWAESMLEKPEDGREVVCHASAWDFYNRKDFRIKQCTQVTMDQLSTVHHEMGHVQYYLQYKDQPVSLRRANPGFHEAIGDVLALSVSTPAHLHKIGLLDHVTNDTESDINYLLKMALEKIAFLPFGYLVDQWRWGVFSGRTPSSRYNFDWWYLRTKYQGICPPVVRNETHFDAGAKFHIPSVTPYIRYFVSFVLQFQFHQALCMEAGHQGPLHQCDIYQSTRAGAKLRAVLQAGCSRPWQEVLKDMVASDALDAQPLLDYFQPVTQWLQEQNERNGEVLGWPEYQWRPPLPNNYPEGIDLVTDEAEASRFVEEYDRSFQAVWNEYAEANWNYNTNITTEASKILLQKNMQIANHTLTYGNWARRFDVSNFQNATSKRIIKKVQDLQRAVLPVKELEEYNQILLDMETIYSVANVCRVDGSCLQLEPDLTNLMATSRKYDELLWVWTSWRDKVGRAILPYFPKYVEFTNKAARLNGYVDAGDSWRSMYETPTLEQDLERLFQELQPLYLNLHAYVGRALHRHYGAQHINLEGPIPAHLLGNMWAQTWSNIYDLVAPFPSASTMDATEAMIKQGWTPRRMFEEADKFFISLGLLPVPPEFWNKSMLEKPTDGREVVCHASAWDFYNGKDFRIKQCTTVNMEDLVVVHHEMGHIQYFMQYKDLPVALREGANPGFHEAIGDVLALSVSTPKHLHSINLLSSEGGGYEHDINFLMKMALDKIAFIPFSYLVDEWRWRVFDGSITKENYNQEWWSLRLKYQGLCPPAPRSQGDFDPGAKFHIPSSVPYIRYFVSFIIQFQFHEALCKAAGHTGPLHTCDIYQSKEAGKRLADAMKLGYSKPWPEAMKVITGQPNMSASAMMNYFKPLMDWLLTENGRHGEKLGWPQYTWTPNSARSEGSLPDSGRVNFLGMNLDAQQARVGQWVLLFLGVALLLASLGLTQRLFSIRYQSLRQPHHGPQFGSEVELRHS
Experimental: The inhibition of the angiotensin conversion enzyme by the compounds of general formula (I) is measured in vitro by the enzyme isolated from rabbit lungs by the method of Cushman and Cheung [Biochem. Pharmacol., 20, 1637 (1971)].

[3] = target: T1, angiotensin conversion enzyme; conditions: literature value given in Table 1; read-out: I50 (lit.); cited from earlier work

CC[C@H](C)[C@H](NC(=O)[C@H](CCC(N)=O)NC(=O)[C@@H]1CCCN1C(=O)[C@H](CCCNC(=N)N)NC(=O)[C@@H]1CCCN1C(=O)[C@H](Cc1c[nH]c2ccccc12)NC(=O)[C@@H]1CCC(=O)N1)C(=O)N1CCC[C@H]1C(=O)N1CCC[C@H]1C(=O)O [teprotide]
oral activity [1]: inactive orally

C[C@H](NC(=O)[C@H](Cc1ccccc1)NC(=O)[C@H](CCCCN)NC(=O)[C@@H]1CCC(=O)N1)C(=O)N1CCC[C@H]1C(=O)O [Glp--Lys--Phe--Ala--Pro] ([pGlu]KFAP-OH)
IC50 [2]: 130 nM
IC50 [3]: 70 nM

C[C@H](NC(=O)C(Cc1ccccc1)C(=O)N[C@H](CCCCN)C(=O)NC1CCC(=O)N1)C(=O)N1CCC[C@H]1C(=O)O (stereo partly drawn) [gGlp--D-Lys--mPhe--Ala--Pro, gem-pyroglutamyl-D-lysyl-(R,S)-malonyl-(2-benzyl)-alanyl-proline]
IC50 [2]: 85000 nM

C[C@H](NC(=O)[C@H](Cc1ccccc1)NC(=O)[C@H](CCCCN)NC(=O)[C@@H]1CCC(=O)N1)C(=O)N1C[C@H](OCc2ccccc2)C[C@H]1C(=O)O [Glp--Lys--Phe--Ala--Hyp(OBz), pyroglutamyl-lysyl-phenylalanyl-alanyl-(4-benzyloxy)-proline] ([pGlu]KFA[Hyp](Bn)-OH)
IC50 [2]: 110 nM
